Key:
[1] = test system: 5HT1A receptor; parameters: method as in Cascio et al., 2010; settings: stimulation by 1 μM 8-OH-DPAT; ref Cascio et al., 2010; cited from earlier work
[2] = test system: TRPV1; parameters: method as in De Petrocellis et al., 2011; settings: ref De Petrocellis et al., 2011; read-out: EC50, agonist of TRPV1; cited from earlier work
[3] = test system: mouse brain membranes; parameters: method as in Cascio et al., 2010; settings: 10 μM CBG, mouse brain membranes treated with AEA or CP-55940; ref Cascio et al., 2010; cited from earlier work
[4] = test system: T1, CB1R; experiment: Label-free dynamic mass redistribution (DMR) in HEK-293T cells; format: cell-based, human
T1 construct: expressed in transfected cells; host or cells: HEK-293T, transient transfection (PEI)
Description: (§1) HEK-293T cells were grown in DMEM medium (Gibco, Paisley, Scotland, United Kingdom) supplemented with 2 mM L-glutamine, 100 U/mL penicillin/streptomycin, MEM Non-Essential Amino Acids Solution (1/100) and 5% (v/v) heat inactivated Foetal Bovine Serum (FBS) (Invitrogen, Paisley, Scotland, United Kingdom). […] Cells were transiently transfected with the PEI (Polyethylenimine, Sigma, St. Louis, MO, United States) method as previously described ([Medrano et al., 2017]; [Navarro et al., 2018b]) and used for functional assays 48 h later (unless otherwise stated).
(§2) Cell mass redistribution induced upon receptor activation was detected by illuminating the underside of a biosensor with polychromatic light and measuring the changes in the wavelength of the reflected monochromatic light. The magnitude of this wavelength shift (in picometers) is directly proportional to the amount of DMR. HEK-293T cells were seeded in 384-well sensor microplates to obtain 70–80% confluent monolayers constituted by approximately 10,000 cells per well. Previous to the assay, cells were washed twice with assay buffer (HBSS with 20 mM HEPES, pH 7.15) and incubated for 2 h with assay-buffer containing 0.1% DMSO (24°C, 30 μL/well). Hereafter, the sensor plate was scanned and a baseline optical signature was recorded for 10 min before adding 10 μL of CBG for 30 min followed by the addition of 10 μL of specific agonists; all test compounds were dissolved in assay buffer. The cell signaling signature was determined using an EnSpire® Multimode Plate Reader (PerkinElmer, Waltham, MA, United States) by a label-free technology. Then, DMR responses were monitored for at least 5,000 s. Results were analyzed using EnSpire Workstation Software v 4.10.

[5] = test system: T2, CB2R; experiment: as above; format: cell-based, human
T2 construct: expressed in transfected cells; host or cells: HEK-293T, transient transfection (PEI)
Description: as §1, §2

[6] = test system: experimental colitis; parameters: method as in Borrelli et al., 2013; settings: model of inflammatory bowel disease; ref Borrelli et al., 2013; cited from earlier work
[7] = target: T3, SNAP-CB2R (Homo sapiens, UniProt P34972); experiment: Homogeneous HTRF competition binding in living HEK-293T cells (fluorophore-conjugated CM-157); settings: living HEK-293T cells expressing SNAP-CB2R, 20 nM fluorescent ligand
T3 construct: host or cells: HEK-293T, transient transfection (PEI)

[8] = test system: T1, CB1R; experiment: Overall signalling profile (cAMP, MAPK, β-arrestin, DMR) in HEK-293T cells; format: cell-based, human; settings: HEK-293T cells expressing CB1R
Description: as §1
(§3) Signaling experiments have been performed as previously described ([Navarro et al., 2010], [2016], [2018b]; [Hinz et al., 2018]). […] Readings were performed after 15 min incubation at 25°C. […] Fluorescence at 665 nm was analyzed in a PHERAstar Flagship microplate reader equipped with an HTRF optical module (BMG Lab Technologies, Offenburg, Germany).
(§4) To determine ERK1/2 phosphorylation, 50,000 HEK-293T cells/well were plated in transparent Deltalab 96-well microplates and kept at the incubator for 24 h. […] 10 μL of each supernatant were placed in white ProxiPlate 384-well microplates and ERK 1/2 phosphorylation was determined using AlphaScreen®SureFire® kit (Perkin Elmer) following the instructions of the supplier and using an EnSpire® Multimode Plate Reader (PerkinElmer, Waltham, MA, United States). […]

[9] = test system: T2, CB2R; experiment: as above; format: cell-based, human; settings: HEK-293T cells expressing CB2R
Description: as §1, §3, §4

[10] = test system: T1, CB1R; experiment: cAMP determination in HEK-293T cells; format: cell-based, human
Description: as §1
(§5) Signaling experiments have been performed as previously described ([Navarro et al., 2010], [2016], [2018b]; [Hinz et al., 2018]). Two hours before initiating the experiment, HEK-293T cell-culture medium was replaced by serum-starved DMEM medium. Then, cells were detached, resuspended in growing medium containing 50 μM zardaverine and placed in 384-well microplates (2,500 cells/well). Cells were pretreated (15 min) with CBG -or vehicle- and stimulated with agonists (15 min) before adding 0.5 μM forskolin or vehicle. Readings were performed after 15 min incubation at 25°C. HTRF energy transfer measures were performed using the Lance Ultra cAMP kit (PerkinElmer, Waltham, MA, United States). Fluorescence at 665 nm was analyzed in a PHERAstar Flagship microplate reader equipped with an HTRF optical module (BMG Lab Technologies, Offenburg, Germany).

[11] = test system: T2, CB2R; experiment: cAMP determination in HEK-293T cells; format: cell-based, human
Description: as §1, §5

[12] = test system: T4, CB1R and CB2R (CB1–CB2 heteroreceptor complexes); experiment: ERK1/2 phosphorylation in HEK-293T cells co-expressing both receptors; format: cell-based, human
T4 construct: expressed in transfected cells; host or cells: HEK-293T, transient co-transfection (PEI)
Description: as §1
To determine ERK1/2 phosphorylation, 50,000 HEK-293T cells/well were plated in transparent Deltalab 96-well microplates and kept at the incubator for 24 h. 2 to 4 h before the experiment, the medium was substituted by serum-starved DMEM medium. Then, cells were pre-treated at 25°C for 10 min with vehicle or CBG in serum-starved DMEM medium and stimulated for an additional 7 min with the specific agonists. Cells were then washed twice with cold PBS before addition of lysis buffer (20 min treatment). 10 μL of each supernatant were placed in white ProxiPlate 384-well microplates and ERK 1/2 phosphorylation was determined using AlphaScreen®SureFire® kit (Perkin Elmer) following the instructions of the supplier and using an EnSpire® Multimode Plate Reader (PerkinElmer, Waltham, MA, United States).

[13] = target: T5, CB2R in a CB1–CB2 receptor heteromer context (Homo sapiens, UniProt P34972); experiment: Homogeneous HTRF competition binding in living HEK-293T cells expressing SNAP-CB2R and CB1R; settings: 20 nM fluorescent ligand, read-out: Ki, HTRF competition of fluorophore-conjugated CM-157 in the presence of CB1R
T5 construct: host or cells: HEK-293T, transient co-transfection (PEI)

[14] = target: T6, human CB2 receptor (Homo sapiens, UniProt P34972); experiment: [3H]-CP-55940 competition binding, CHO membranes; settings: radioligand 0.3 nM [3H]-CP-55940, CHO membranes
T6 construct: expressed in transfected cells; membranes

[15] = CBG alone, 1 nM to 10 μM, CB1R-expressing cells
[16] = 100 nM or 1 μM CBG pretreatment, 100 nM AEA or JWH133, CB2R
[17] = CBG alone, 1 nM to 10 μM, CB2R-expressing cells

T5 sequence (P34972 whole entry): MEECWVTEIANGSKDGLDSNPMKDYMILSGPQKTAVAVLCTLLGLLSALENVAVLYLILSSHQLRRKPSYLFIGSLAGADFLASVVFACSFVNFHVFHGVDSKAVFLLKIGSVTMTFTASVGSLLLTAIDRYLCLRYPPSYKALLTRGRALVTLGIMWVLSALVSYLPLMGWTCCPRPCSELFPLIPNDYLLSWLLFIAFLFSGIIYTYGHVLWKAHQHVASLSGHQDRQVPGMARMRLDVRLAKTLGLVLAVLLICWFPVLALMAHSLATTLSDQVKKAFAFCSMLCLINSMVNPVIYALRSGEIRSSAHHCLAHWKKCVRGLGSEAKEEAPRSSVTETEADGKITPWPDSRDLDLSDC
T5 sequence (P21554 whole entry partner): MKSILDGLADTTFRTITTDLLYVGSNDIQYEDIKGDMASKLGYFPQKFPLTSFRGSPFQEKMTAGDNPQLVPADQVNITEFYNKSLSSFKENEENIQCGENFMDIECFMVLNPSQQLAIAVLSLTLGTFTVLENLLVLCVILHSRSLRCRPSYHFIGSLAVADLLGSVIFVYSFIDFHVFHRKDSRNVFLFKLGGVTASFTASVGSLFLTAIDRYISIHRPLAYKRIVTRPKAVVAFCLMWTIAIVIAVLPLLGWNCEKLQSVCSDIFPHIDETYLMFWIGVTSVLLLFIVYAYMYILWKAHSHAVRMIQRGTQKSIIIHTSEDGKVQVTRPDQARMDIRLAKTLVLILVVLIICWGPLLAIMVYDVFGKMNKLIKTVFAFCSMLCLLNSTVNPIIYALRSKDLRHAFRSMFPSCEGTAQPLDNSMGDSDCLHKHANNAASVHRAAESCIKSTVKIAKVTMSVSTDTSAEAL
T3 sequence (P34972 whole entry): as the sequence (P34972 whole entry) above
T6 sequence (P34972 whole entry): as above

**Q.** For `CCCCCc1cc(O)c(C/C=C(\C)CCC=C(C)C)c(O)c1` [CBG, cannabigerol], which “Effect on [35S]GTPγS binding upon 5HT1A stimulation” value [1] is on record?
**A.** able to antagonize

**Q.** And the EC50 [2]?
**A.** 1300 nM

**Q.** What about the “Effect on [35S]GTPγS binding” value [3] of the same compound?
**A.** antagonized

**Q.** And the “Effect on agonist-induced DMR” value ([4]; 100 nM or 1 μM CBG, 100 nM AEA or ACEA, CB1R)?
**A.** reduced the effect of the agonists

**Q.** And the DMR signal [4, 15]?
**A.** slight effect

**Q.** What about the “Effect on AEA and JWH133 effects on label-free DMR” value [5, 16] of the same compound?
**A.** reduced the effects of AEA and JWH133

**Q.** What about the DMR signal [5, 17] of the same compound?
**A.** small and similar to that exerted in CB1R-expressing cells

**Q.** And the “Effect on experimental colitis” value [6]?
**A.** reduce the histological and molecular changes of experimental colitis

**Q.** What about the Ki [7] of the same compound?
**A.** 152 nM

**Q.** And the “Pharmacological profile at CB1R” value [8]?
**A.** poor agonist of CB1R

**Q.** What about the “Pharmacological profile at CB2R” value [9] of the same compound?
**A.** partial agonist of the CB2R

**Q.** And the “Effect on AEA and ACEA induced effects on forskolin-induced cAMP” value ([10]; 100 nM or 1 μM CBG pretreatment, 100 nM AEA or ACEA, CB1R)?
**A.** significant decrease

**Q.** What about the “Effect on forskolin induced cAMP levels” value [10, 15] of the same compound?
**A.** small decrease

**Q.** What about the “Effect on AEA and JWH133 effects on forskolin-induced cAMP levels” value [11, 16] of the same compound?
**A.** reduced the effects of AEA and JWH133

**Q.** And the “Effect on forskolin-induced cAMP levels” value [11, 17]?
**A.** small and similar to that exerted in CB1R-expressing cells

**Q.** And the “Effect on agonist actions on ERK1/2 phosphorylation” value ([12]; 100 nM CBG pretreatment, cells co-expressing CB1R and CB2R)?
**A.** negligible except for the negative modulation of the ACEA effect on ERK1/2 phosphorylation

**Q.** What about the “Effect on ERK1/2 phosphorylation” value ([12]; CBG alone, dose-effect, cells expressing CB1R and CB2R) of the same compound?
**A.** negative cross-talk was still evident

**Q.** And the Ki [13]?
**A.** 56 nM

**Q.** What about the Ki [14] of the same compound?
**A.** 1220 nM
